Values joined by “and” are separate entries in the source; they are usually repeats but may differ in a detail not shown here. Equal values may be shown once. Inconclusive results and toxic doses are left out. The calls were made as follows: active = survival T/C of 150% or more; inactive = T/C below 125% in these data.
Tested on: CD2F1 mice, L1210 leukemia ip, survival T/C
Assay: NCI In Vivo Anticancer Drug Screen. Data for tumor model L1210 Leukemia (intraperitoneal) in CD2F1 (CDF1) mice
Details: higher = longer survival
Summary of the method: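 Compound-dosed mice with transplantable tumor versus matched vehicle controls; endpoint ratio T/C reported.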

[1] = endpoint: mean survival time, dose: 100.0 mg/kg/injection, schedule: Q04DX003 (ip), vehicle: saline with Tween-80
[2] = endpoint: mean survival time, dose: 200.0 mg/kg/injection, schedule: Q04DX003 (ip), vehicle: saline with Tween-80
[3] = endpoint: mean survival time, dose: 100.0 mg/kg/injection, schedule: Q01DX009 (ip), vehicle: saline with Tween-80
[4] = endpoint: mean survival time, dose: 200.0 mg/kg/injection, schedule: Q01DX009 (ip), vehicle: saline with Tween-80
[5] = endpoint: mean survival time, dose: 400.0 mg/kg/injection, schedule: Q01DX009 (ip), vehicle: saline with Tween-80
[6] = endpoint: mean survival time, dose: 400.0 mg/kg/injection, schedule: Q04DX003 (ip), vehicle: saline with Tween-80

Measured: T/C

O=C/C=C/C=C/C=C/c1ccccc1
inactive: endpoint: mean survival time, dose: 62.5 mg/kg/injection, schedule: Q01DX001 (ip), vehicle: distilled water + alcohol 93 % of control | endpoint: mean survival time, dose: 125.0 mg/kg/injection, schedule: Q01DX001 (ip), vehicle: distilled water + alcohol 96 % of control | endpoint: mean survival time, dose: 250.0 mg/kg/injection, schedule: Q01DX001 (ip), vehicle: distilled water + alcohol 92 % of control | endpoint: mean survival time, dose: 500.0 mg/kg/injection, schedule: Q01DX001 (ip), vehicle: distilled water + alcohol 90 % of control | endpoint: median survival time, dose: 50.0 mg/kg/injection, schedule: Q01DX009 (ip), vehicle: saline 98 % of control | endpoint: median survival time, dose: 100.0 mg/kg/injection, schedule: Q01DX009 (ip), vehicle: saline 106 % of control | endpoint: median survival time, dose: 200.0 mg/kg/injection, schedule: Q01DX009 (ip), vehicle: saline 100 % of control | endpoint: median survival time, dose: 400.0 mg/kg/injection, schedule: Q01DX009 (ip), vehicle: saline 101 % of control | endpoint: median survival time, dose: 800.0 mg/kg/injection, schedule: Q01DX009 (ip), vehicle: saline 100 % of control

COc1ccc(O)cc1
inactive: endpoint: median survival time, dose: 12.5 mg/kg/injection, schedule: Q01DX005 (ip), vehicle: saline with Tween-80 98 % of control | endpoint: median survival time, dose: 25.0 mg/kg/injection, schedule: Q01DX005 (ip), vehicle: saline with Tween-80 98 % of control | endpoint: median survival time, dose: 50.0 mg/kg/injection, schedule: Q01DX005 (ip), vehicle: saline with Tween-80 95 % of control | endpoint: median survival time, dose: 100.0 mg/kg/injection, schedule: Q01DX005 (ip), vehicle: saline with Tween-80 103 % of control | endpoint: median survival time, dose: 200.0 mg/kg/injection, schedule: Q01DX005 (ip), vehicle: saline with Tween-80 116 % of control

Cc1nc2c(NC(=O)CCl)nn(C)c2nc1C
inactive: [1] 98 % of control | [2] 95 % of control

Oc1ccc(CC2=NCCc3cc(O)c(O)cc32)cc1O
inactive: endpoint: mean survival time, dose: 5.0 mg/kg/injection, schedule: Q01DX001 (ip), vehicle: saline 104 % of control | endpoint: mean survival time, dose: 10.0 mg/kg/injection, schedule: Q01DX001 (ip), vehicle: saline 98 % of control | endpoint: mean survival time, dose: 20.0 mg/kg/injection, schedule: Q01DX001 (ip), vehicle: saline 98 % of control | endpoint: mean survival time, dose: 40.0 mg/kg/injection, schedule: Q01DX001 (ip), vehicle: saline 100 % of control | endpoint: mean survival time, dose: 80.0 mg/kg/injection, schedule: Q01DX001 (ip), vehicle: saline 102 % of control

Cc1cc(N(CCOS(C)(=O)=O)CCOS(C)(=O)=O)ccc1C=Nc1ccc(-c2nc(Cc3ccccc3)sc2C)cc1
inactive: endpoint: mean survival time, dose: 12.5 mg/kg/injection, schedule: Q01DX009 (ip), vehicle: Klucel (hydroxypropylcellulose) (HPC) 103 % of control and 106 % of control | endpoint: mean survival time, dose: 25.0 mg/kg/injection, schedule: Q01DX009 (ip), vehicle: Klucel (hydroxypropylcellulose) (HPC) 117 % of control and 124 % of control | endpoint: mean survival time, dose: 50.0 mg/kg/injection, schedule: Q01DX009 (ip), vehicle: Klucel (hydroxypropylcellulose) (HPC) 117 % of control and 111 % of control | endpoint: mean survival time, dose: 100.0 mg/kg/injection, schedule: Q01DX009 (ip), vehicle: Klucel (hydroxypropylcellulose) (HPC) 118 % of control and 120 % of control | endpoint: mean survival time, dose: 200.0 mg/kg/injection, schedule: Q01DX009 (ip), vehicle: Klucel (hydroxypropylcellulose) (HPC) 110 % of control | endpoint: mean survival time, dose: 400.0 mg/kg/injection, schedule: Q01DX009 (ip), vehicle: Klucel (hydroxypropylcellulose) (HPC) 103 % of control

COc1cc(C(Cl)C2OC(CO)C(O)C2O)nc(C)n1 (stereo not drawn)
inactive: endpoint: median survival time, dose: 18.38 mg/kg/injection, schedule: Q01DX005 (ip), vehicle: saline 110 % of control | endpoint: median survival time, dose: 26.0 mg/kg/injection, schedule: Q01DX005 (ip), vehicle: saline 103 % of control | endpoint: median survival time, dose: 36.75 mg/kg/injection, schedule: Q01DX005 (ip), vehicle: saline 97 % of control | endpoint: median survival time, dose: 52.0 mg/kg/injection, schedule: Q01DX005 (ip), vehicle: saline 102 % of control | endpoint: median survival time, dose: 73.5 mg/kg/injection, schedule: Q01DX005 (ip), vehicle: saline 100 % of control | endpoint: median survival time, dose: 104.0 mg/kg/injection, schedule: Q01DX005 (ip), vehicle: saline 107 % of control | endpoint: median survival time, dose: 147.0 mg/kg/injection, schedule: Q01DX005 (ip), vehicle: saline 103 % of control | endpoint: median survival time, dose: 208.0 mg/kg/injection, schedule: Q01DX005 (ip), vehicle: saline 101 % of control

O=C(CC(NC(=O)OCc1ccccc1)C(=O)OCc1ccccc1)OCc1ccccc1 (stereo not drawn)
inactive: [3] 106 % of control | [1] 92 % of control | [4] 98 % of control | [2] 91 % of control | [5] 97 % of control | [6] 92 % of control

N#CC(/C=C/c1ccccc1)Nc1ccccc1 (stereo not drawn)
inactive: [3] 89 % of control | endpoint: mean survival time, dose: 100.0 mg/kg/injection, schedule: Q04DX003 (ip), vehicle: saline sonified 100 % of control | [4] 90 % of control | endpoint: mean survival time, dose: 200.0 mg/kg/injection, schedule: Q04DX003 (ip), vehicle: saline sonified 97 % of control | [5] 89 % of control | endpoint: mean survival time, dose: 400.0 mg/kg/injection, schedule: Q04DX003 (ip), vehicle: saline sonified 96 % of control

O=C(O)c1cscn1.O=C(O)c1cscn1.[I][Pt][I]
inactive: endpoint: mean survival time, dose: 3.12 mg/kg/injection, schedule: Q04DX003 (ip), vehicle: distilled water + Tween-80 108 % of control | endpoint: mean survival time, dose: 6.25 mg/kg/injection, schedule: Q04DX003 (ip), vehicle: distilled water + Tween-80 101 % of control | endpoint: mean survival time, dose: 12.5 mg/kg/injection, schedule: Q04DX003 (ip), vehicle: distilled water + Tween-80 104 % of control | endpoint: mean survival time, dose: 25.0 mg/kg/injection, schedule: Q04DX003 (ip), vehicle: distilled water + Tween-80 102 % of control | endpoint: mean survival time, dose: 50.0 mg/kg/injection, schedule: Q04DX003 (ip), vehicle: distilled water + Tween-80 104 % of control | endpoint: mean survival time, dose: 50.0 mg/kg/injection, schedule: Q04DX003 (ip), vehicle: saline with Tween-80 110 % of control | endpoint: mean survival time, dose: 100.0 mg/kg/injection, schedule: Q04DX003 (ip), vehicle: distilled water + Tween-80 114 % of control | [1] 104 % of control | endpoint: mean survival time, dose: 200.0 mg/kg/injection, schedule: Q04DX003 (ip), vehicle: distilled water + Tween-80 119 % of control | [2] 122 % of control | [6] 112 % of control

O=C(OCc1ccccc1)C1CC1
inactive: endpoint: mean survival time, dose: 25.0 mg/kg/injection, schedule: Q01DX005 (ip), vehicle: saline with Tween-80 89 % of control | endpoint: mean survival time, dose: 25.0 mg/kg/injection, schedule: Q01DX009 (ip), vehicle: saline with Tween-80 96 % of control | endpoint: mean survival time, dose: 50.0 mg/kg/injection, schedule: Q01DX005 (ip), vehicle: saline with Tween-80 97 % of control | endpoint: mean survival time, dose: 50.0 mg/kg/injection, schedule: Q01DX009 (ip), vehicle: saline with Tween-80 104 % of control | endpoint: mean survival time, dose: 50.0 mg/kg/injection, schedule: Q04DX002 (ip), vehicle: saline with Tween-80 97 % of control | endpoint: mean survival time, dose: 100.0 mg/kg/injection, schedule: Q01DX005 (ip), vehicle: saline with Tween-80 93 % of control | [3] 100 % of control | endpoint: mean survival time, dose: 100.0 mg/kg/injection, schedule: Q04DX002 (ip), vehicle: saline with Tween-80 102 % of control | endpoint: mean survival time, dose: 200.0 mg/kg/injection, schedule: Q01DX005 (ip), vehicle: saline with Tween-80 93 % of control | [4] 93 % of control | endpoint: mean survival time, dose: 200.0 mg/kg/injection, schedule: Q04DX002 (ip), vehicle: saline with Tween-80 102 % of control

ON=C1c2cc(Br)ccc2-c2ccc(Br)cc21
inactive: endpoint: mean survival time, dose: 50.0 mg/kg/injection, schedule: Q01DX001 (ip), vehicle: carboxymethylcellulose (CMC) 104 % of control | endpoint: mean survival time, dose: 100.0 mg/kg/injection, schedule: Q01DX001 (ip), vehicle: carboxymethylcellulose (CMC) 102 % of control | endpoint: mean survival time, dose: 200.0 mg/kg/injection, schedule: Q01DX001 (ip), vehicle: carboxymethylcellulose (CMC) 98 % of control | endpoint: mean survival time, dose: 400.0 mg/kg/injection, schedule: Q01DX001 (ip), vehicle: carboxymethylcellulose (CMC) 102 % of control

— PubChem BioAssay AID256 (DTP/NCI, 2004)
